Results on 15 compounds are retold here after paper PMC10444817, “New proapoptotic chemotherapeutic agents based on the quinolone-3-carboxamide scaffold acting by VEGFR-2 inhibition” (Scientific Reports, 2023).

Series [1] relates to HepG2 cells. Kind of series: MTT cytotoxicity against HepG2 tumor cell line. The note with it: read-out: Cytotoxic activity against HepG2 cell line IC50, 48 h, average of 3 independent runs ± SE.
Series [2] deals with VEGFR-2 (Homo sapiens, UniProt P35968). Description: VEGFR-2 kinase inhibition assay (Kinase-Glo MAX luminescence kit, BPS Bioscience). The settings on record: for IC50: VEGFR-2 inhibitory activity IC50, average of 3 independent runs ± SE.
Series [3] can be described thus: MTT cytotoxicity against THLE-2 normal liver cell line. The note with it: human, THLE-2 normal liver epithelial cells; MTT, 48 h; measured in triplicates; read-out: CC50 cytotoxic activity against THLE-2 normal cell line. The format is cell-based, human. The protocol:
(§1) The produced formazan was measured by means of the spectrophotometer ROBONIK P2000 at a wavelength of 570 nm. The Cytotoxic concentration values (CC50) of the assessed compounds were reported as the mean of three independent runs ± SE[69].

For series [4], the system named is Transformed Human Liver Epithelial-2 normal cell line (THLE-2). Described as above. Format: cell-based. The settings on record: CC50 (THLE-2) / IC50 (HepG2). Here is the method:
as §1

Where “and” joins values, the source holds several entries; their conditions need not be identical. Identical values can stand only once.

Sequence of VEGFR-2 (P35968 20-1356): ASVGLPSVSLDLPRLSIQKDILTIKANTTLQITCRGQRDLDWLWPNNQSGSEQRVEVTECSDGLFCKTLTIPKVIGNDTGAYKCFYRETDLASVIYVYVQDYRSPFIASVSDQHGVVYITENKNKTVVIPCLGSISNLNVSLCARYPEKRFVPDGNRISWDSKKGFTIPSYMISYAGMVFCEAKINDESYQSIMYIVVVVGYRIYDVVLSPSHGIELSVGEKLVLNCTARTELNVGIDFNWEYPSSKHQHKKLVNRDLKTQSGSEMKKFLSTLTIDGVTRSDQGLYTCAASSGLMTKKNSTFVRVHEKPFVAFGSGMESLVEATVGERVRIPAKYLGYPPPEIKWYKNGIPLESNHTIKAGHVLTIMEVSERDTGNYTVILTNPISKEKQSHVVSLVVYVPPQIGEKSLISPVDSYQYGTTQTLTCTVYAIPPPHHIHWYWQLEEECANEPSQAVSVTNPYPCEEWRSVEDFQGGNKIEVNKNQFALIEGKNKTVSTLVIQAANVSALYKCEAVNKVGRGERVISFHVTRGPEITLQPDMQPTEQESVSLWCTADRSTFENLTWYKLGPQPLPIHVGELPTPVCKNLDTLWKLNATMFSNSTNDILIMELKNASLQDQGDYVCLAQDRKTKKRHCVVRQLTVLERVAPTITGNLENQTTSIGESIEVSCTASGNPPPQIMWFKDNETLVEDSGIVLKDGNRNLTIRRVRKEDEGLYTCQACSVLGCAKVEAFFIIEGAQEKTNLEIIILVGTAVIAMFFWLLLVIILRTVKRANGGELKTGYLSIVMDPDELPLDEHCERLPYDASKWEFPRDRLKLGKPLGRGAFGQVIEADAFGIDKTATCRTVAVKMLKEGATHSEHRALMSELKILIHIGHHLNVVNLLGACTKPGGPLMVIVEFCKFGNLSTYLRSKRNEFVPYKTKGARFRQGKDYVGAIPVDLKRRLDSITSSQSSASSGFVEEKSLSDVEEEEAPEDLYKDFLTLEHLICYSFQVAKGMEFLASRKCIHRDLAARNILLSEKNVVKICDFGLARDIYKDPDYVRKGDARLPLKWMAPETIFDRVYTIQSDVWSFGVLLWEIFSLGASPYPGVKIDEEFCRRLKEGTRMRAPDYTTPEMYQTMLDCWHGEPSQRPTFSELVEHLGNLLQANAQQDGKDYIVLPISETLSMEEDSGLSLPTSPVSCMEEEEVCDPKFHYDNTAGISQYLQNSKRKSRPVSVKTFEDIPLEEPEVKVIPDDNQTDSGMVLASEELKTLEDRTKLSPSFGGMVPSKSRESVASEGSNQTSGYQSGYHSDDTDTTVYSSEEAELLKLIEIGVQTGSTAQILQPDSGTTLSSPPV

`O=C(Nc1ccc(NC(=O)c2c[nH]c3ccc(Cl)cc3c2=O)cc1)Nc1cccc(C(F)(F)F)c1` [Compound 10f, 6-Chloro-4-oxo-N-(4-(3-(3-(trifluoromethyl)phenyl)ureido)phenyl)-1,4-dihydroquinoline-3-carboxamide] returned a melting point greater than 300 °C. For the same compound, in series [1], the IC50 turned out to be 62 ± 3.87 µM. The compound further displayed an IC50 in series [2] of 0.1045 ± 5e-06 µM.
For `Cc1ccccc1NC(=O)Nc1ccc(NC(=O)c2c[nH]c3ccc(F)cc3c2=O)cc1` [Compound 10m, 6-Fluoro-4-oxo-N-(4-(3-(o-tolyl)ureido)phenyl)-1,4-dihydroquinoline-3 carboxamide] the same measures were greater than 300 °C, 13 ± 0.75 µM and 0.181 ± 1e-05 µM.
In turn, `Cc1ccccc1NC(=O)Nc1ccc(NC(=O)c2c[nH]c3ccc(Cl)cc3c2=O)cc1` [Compound 10d, 6-Chloro-4-oxo-N-(4-(3-(o-tolyl)ureido)phenyl)-1,4-dihydroquinoline-3-carboxamide] registered a melting point greater than 300 °C. Moreover, the 50% inhibitory concentration (IC50) in series [1] is 1.07 ± 0.06 µM. Half-maximal inhibition in series [2] (IC50) required 0.069 ± 2e-05 µM.
For `Cc1ccc(NC(=O)Nc2ccc(NC(=O)c3c[nH]c4ccc(F)cc4c3=O)cc2)cc1` [Compound 10k, 6-Fluoro-4-oxo-N-(4-(3-(p-tolyl)ureido)phenyl)-1,4-dihydroquinoline-3-carboxamide] the same measures were greater than 300 °C, 34.2 ± 2.06 µM and 2.226 ± 9e-05 µM.
For the compound `CC(C)c1ccc(NC(=O)Nc2ccc(NC(=O)c3c[nH]c4ccc(F)cc4c3=O)cc2)cc1` [Compound 10p, 6-Fluoro-N-(4-(3-(4-isopropylphenyl)ureido)phenyl)-4-oxo-1,4-dihydroquinoline-3-carboxamide], the melting point was greater than 300 °C. Besides, the IC50 in series [1] was determined as 8.14 ± 0.47 µM. Further, in series [2] (4-isopropyl vs 4-CH3 analogue), the “Fold increase in VEGFR-2 inhibitory activity compared to para methyl substituted derivatives 10b and 10k” value is “more than 16 fold”. The IC50 in series [2] stood at 0.097 ± 1e-05 µM.
`O=C(Nc1ccc(F)cc1)Nc1ccc(NC(=O)c2c[nH]c3ccc(F)cc3c2=O)cc1` [Compound 10n, 6-Fluoro-N-(4-(3-(4-fluorophenyl)ureido)phenyl)-4-oxo-1,4-dihydroquinoline-3-carboxamide] came in with a melting point greater than 300 °C. In addition, the IC50 in series [1] was 2.88 ± 0.14 µM. In series [2], this compound displayed an IC50 of 0.257 ± 1e-05 µM.
For `Cc1cccc(NC(=O)Nc2ccc(NC(=O)c3c[nH]c4ccc(Cl)cc4c3=O)cc2)c1` [Compound 10c, 6-Chloro-4-oxo-N-(4-(3-(m-tolyl)ureido)phenyl)-1,4-dihydroquinoline-3-carboxamide] the same measures were greater than 300 °C, 4.14 ± 0.25 µM and 0.169 ± 1e-05 µM.
For `O=C(Nc1ccccc1)Nc1ccc(NC(=O)c2c[nH]c3ccc(F)cc3c2=O)cc1` [Compound 10j, 6-Fluoro-4-oxo-N-(4-(3-phenylureido)phenyl)-1,4-dihydroquinoline-3-carboxamide] the same measures were greater than 300 °C, 41.9 ± 2.52 µM and 0.34 ± 1e-05 µM.
In the case of `O=C(Nc1ccc(F)cc1)Nc1ccc(NC(=O)c2c[nH]c3ccc(Cl)cc3c2=O)cc1` [Compound 10e, 6-Chloro-N-(4-(3-(4-fluorophenyl)ureido)phenyl)-4-oxo-1,4-dihydroquinoline-3-carboxamide], the melting point was greater than 300 °C. The half-maximal inhibitory concentration (IC50) in series [1] is 0.88 ± 0.05 µM. Moreover, the IC50 in series [2] is 0.197 µM and 0.179 µM.
In turn, `Cc1ccc(NC(=O)Nc2ccc(NC(=O)c3c[nH]c4ccc(Cl)cc4c3=O)cc2)cc1` [Compound 10b, 6-Chloro-4-oxo-N-(4-(3-(p-tolyl)ureido)phenyl)-1,4-dihydroquinoline-3-carboxamide] had a melting point greater than 300 °C. In addition, the IC50 in series [1] is 50.8 ± 3.16 µM. The same compound returned an IC50 in series [2] of 0.578 ± 3e-05 µM.
`O=C(Nc1ccc(NC(=O)c2c[nH]c3ccc(F)cc3c2=O)cc1)Nc1cccc(C(F)(F)F)c1` [Compound 10o, 6-Fluoro-4-oxo-N-(4-(3-(3-(trifluoromethyl)phenyl)ureido)phenyl)-1,4-dihydroquinoline-3-carboxamide] registered a melting point greater than 300 °C. In addition, in series [3], the CC50 at 48 h was 15.2 µM. Further, in series [4], the “Selectivity index (SI)” value is 5.52. For the same compound, the IC50 in series [1] was found to be 2.76 ± 0.1 µM. For the same compound, the IC50 in series [2] was 0.038 ± 2e-05 µM.
`Cc1cccc(NC(=O)Nc2ccc(NC(=O)c3c[nH]c4ccc(F)cc4c3=O)cc2)c1` [Compound 10l, 6-Fluoro-4-oxo-N-(4-(3-(m-tolyl)ureido)phenyl)-1,4-dihydroquinoline-3-carboxamide]: the melting point was greater than 300 °C. For the same compound, in series [1], the IC50 was 14.2 ± 0.82 µM. In series [2], half-maximal inhibition (IC50) required 0.317 ± 1e-05 µM.
`O=C(Nc1ccc(NC(=O)c2c[nH]c3ccc(Cl)cc3c2=O)cc1)Nc1ccc2ncsc2c1` [Compound 10h, N-(4-(3-(Benzo[d]thiazol-6-yl)ureido)phenyl)-6-chloro-4-oxo-1,4-dihydroquinoline-3-carboxamide] yielded a melting point greater than 300 °C. Also, in series [1], the IC50 stood at 14.9 ± 0.52 µM. Moreover, the 50% inhibitory concentration (IC50) in series [2] was 0.937 ± 4e-05 µM. Besides, the “Fold decrease in VEGFR-2 inhibitory activity” value in series [2] (benzothiazole derivative, comparator not named) is recorded as “about 5.5 fold”.
As to `O=C(Nc1ccccc1)Nc1ccc(NC(=O)c2c[nH]c3ccc(Cl)cc3c2=O)cc1` [Compound 10a, 6-Chloro-4-oxo-N-(4-(3-phenylureido)phenyl)-1,4-dihydroquinoline-3-carboxamide], the melting point is greater than 300 °C. Besides, the IC50 in series [1] is 4.6 ± 0.28 µM. In addition, in series [2], the midpoint of inhibition, the IC50, lay at 0.138 ± 1e-05 µM.
Take `N#Cc1ccc(NC(=O)Nc2ccc(NC(=O)c3c[nH]c4ccc(Cl)cc4c3=O)cc2)cc1` [Compound 10g, 6-Chloro-N-(4-(3-(4-cyanophenyl)ureido)phenyl)-4-oxo-1,4-dihydroquinoline-3-carboxamide]: the melting point is greater than 300 °C. Further, the IC50 in series [1] amounted to 43.1 ± 2.59 µM. The compound further came in with a concentration for half-maximal inhibition (IC50) in series [2] of 1.603 ± 6e-05 µM.

Usually melting point stands for the temperature, or range, at which the solid turns liquid. One may read the IC50 as the midpoint of a concentration-inhibition curve. As usually defined, the CC50 is the concentration that lowers cell viability or growth by half.
